Assay results as given in patent US20090313718A1, “POLYNUCLEOTIDES ENCODING CARYOPHYLLENE SYNTHASE AND USES THEREOF” (priority 2006, published 2009).
“Also recorded” adds a separate entry of the source. Where two headings read alike, the source gives them in different places.

How the values were obtained:
TPS23-Del [1] = target: T1, TPS23-Del (Zea mays, UniProt B2C4D0); test: Substrate specificity and product identification of recombinant TPS23 (SPME, GC-MS); assay type: biochemical, maize (Zea mays L.); design: For expression with a N-terminal 8×His tag the ORF of tps23 was amplified; 8xHis (N); made in house; host or cells: E. coli BL21 (DE3), vector pHIS8-3; conditions: recombinant His-tagged TPS23-Del from E. coli BL21 (DE3)
T1 sequence (B2C4D0 1-547): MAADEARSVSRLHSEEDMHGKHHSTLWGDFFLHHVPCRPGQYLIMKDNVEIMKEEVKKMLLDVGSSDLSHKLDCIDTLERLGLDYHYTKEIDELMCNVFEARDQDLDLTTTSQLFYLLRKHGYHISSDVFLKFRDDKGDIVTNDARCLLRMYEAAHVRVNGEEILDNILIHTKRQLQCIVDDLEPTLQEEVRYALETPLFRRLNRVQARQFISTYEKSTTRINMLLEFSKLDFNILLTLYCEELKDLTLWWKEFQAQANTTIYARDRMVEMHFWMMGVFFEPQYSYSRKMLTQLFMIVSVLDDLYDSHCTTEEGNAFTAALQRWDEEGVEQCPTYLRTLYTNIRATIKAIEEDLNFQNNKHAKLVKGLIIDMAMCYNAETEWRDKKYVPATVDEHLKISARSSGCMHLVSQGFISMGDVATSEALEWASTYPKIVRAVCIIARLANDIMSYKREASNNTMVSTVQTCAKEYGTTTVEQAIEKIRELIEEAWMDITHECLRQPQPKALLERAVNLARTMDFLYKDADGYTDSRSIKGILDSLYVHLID
Experimental: (§1) The construct was introduced into the E. coli strain BL21 (DE3) and fully sequenced to avoid errors introduced by DNA amplification. Liquid cultures of the bacteria harboring the expression constructs were grown at 37° C. to an OD600 of 0.6. Then, isopropyl-β-thiogalactopyranoside was added to a final concentration of 1 mM, and the cultures were incubated for 20 hours at 18° C. The cells were collected by centrifugation and disrupted by a 4×30 s treatment with a sonicator (Bandelin UW2070) in chilled extraction buffer (50 mM Mopso, pH 7.0, with 5 mM MgCl2, 5 mM sodium ascorbate, 0.5 mM PMSF, 5 mM dithiothreitol and 10% (v/v) glycerol). The cell fragments were removed by centrifugation at 14,000 g and the supernatant was desalted into assay buffer (10 mM Mopso, pH 7.0, 1 mM dithiothreitol, 10% (v/v) glycerol) by passage through a Econopac 10DG column (BioRad, Hercules, Calif., USA). For kinetic studies the His-tagged enzyme was further purified on a nickel-nitrilotriacetate agarose column (Qiagen, Heidelberg, Germany) according to manufacturer's instructions.
Assay for Terpene Synthase Activity • To determine the catalytic activity of the terpene synthase TPS23, enzyme assays containing 50 μl of the bacterial extract and 50 μl assay buffer with 10 μM (E,E)-FPP, 10 mM MgCl2, 0.05 mM MnCl2, 0.2 mM NaWO4 and 0.1 mM NaF in a Teflon-sealed, screw-capped 1 ml GC glass vial were performed. A SPME (solid phase microextraction) fiber consisting of 100 μm Polydimethylsiloxane (SUPELCO, Belafonte, Pa., USA) was placed into the headspace of the vial for 1 h incubation at 30° C. […] Assay results are reported as the mean of three independent replicate assays, and each experiment was repeated 2-3 times with similar results. […] The concentration of the purified protein was determined by the method of Bradford (1976) using the BioRad reagent with BSA as standard.
Gas Chromatography • A Hewlett-Packard model 6890 gas chromatograph was employed with the carrier gas He at 1 ml min^−1, splitless injection (injector temperature—220° C.), a Chrompack CP-SIL-5 CB-MS column ((5%-phenyl)-methylpolysiloxane, 25 m×0.25 mm i.d.×0.25μ film thickness, Varian, USA) and a temperature program from 40° C. (3-min hold) at 5° C. min^−1 to 240° C. (3 min hold). The coupled mass spectrometer was a Hewlett-Packard model 5973 with a quadrupole mass selective detector, transfer line temperature—230° C., source temperature—230° C., quadrupole temperature—150° C., ionization potential—70 eV and a scan range of 40-350 atomic mass units. Products were identified by comparison of retention times and mass spectra with authentic reference compounds. […]

TPS23-Del [2] = target: T1, TPS23-Del; test: Kinetic and metal ion cofactor assay with purified TPS23 and tritium-labeled FPP
Experimental: as §1
(§2) Assay for Terpene Synthase Activity • To determine the catalytic activity of the terpene synthase TPS23, enzyme assays containing 50 μl of the bacterial extract and 50 μl assay buffer with 10 μM (E,E)-FPP, 10 mM MgCl2, 0.05 mM MnCl2, 0.2 mM NaWO4 and 0.1 mM NaF in a Teflon-sealed, screw-capped 1 ml GC glass vial were performed. […] The assay was overlaid with 1 ml pentane to trap volatile products and incubated for 20 min at 30° C. The reaction was stopped by mixing, and 0.5 ml of the pentane layer was taken for measurement of radioactivity by liquid scintillation counting in 2 ml Lipoluma cocktail (Packard Bioscience, Groningen, The Netherlands) using a Packard Tricarb 2300TR liquid scintillation counter (^3H efficiency=61%). […] Assay results are reported as the mean of three independent replicate assays, and each experiment was repeated 2-3 times with similar results. The Km values were determined using seven substrate concentrations with four repetitions each. […] The concentration of the purified protein was determined by the method of Bradford (1976) using the BioRad reagent with BSA as standard.
(§3) To determine the biochemical properties of TPS23-Del, the purified enzyme was incubated with tritium-labeled FPP and the assays performed under the appropriate conditions.

[3] = stored at −80° C.
pathogens = conditions: cited from earlier work
[4] = test system: adult females of D. v. virgifera; conditions: in vivo; cited from earlier work
Heterorhabditis megidis = test: Belowground six-arm olfactometer assay; assay type: in vivo
Experimental: 9. Bioassays • Attraction of the nematode Heterorhabditis megidis toward (E)-β-caryophyllene was tested with belowground six-arm olfactometer assays (Rasmann et al., 2005). The apparatus consisted of a central glass chamber with six evenly distributed side arms that connect it to six glass pots. The entire system was filled with moist sand (10% water). An aliquot of 0.2 μl of authentic (E)-β-caryophyllene (98% pure; Sigma-Aldrich) was injected into one of the glass pots and the five untreated pots were used as controls. About 2000 H. megidis were released in a drop of water in the centre of the central arena. […] On the next day, recovered nematodes were counted. • To test the above ground role of (E)-β-caryophyllene in attracting herbivore enemies, S. littoralis caterpillars and the solitary endoparasitoid Cotesia marginiventris were reared as described by Turlings et al. (2004). […] The experiment was repeated seven times. • The behavioral responses of parasitoids and entomopathogenic nematodes to (E)-β-caryophyllene were analyzed with a log-linear model corrected for the expected distribution within the olfactometer (Turlings et al. 2004). The model was fitted by maximum quasilikelihood estimation in the software package R (Version 2.4.0) and its adequacy was assessed through likelihood ratio statistics and examination of residuals. […]

Cotesia marginiventris = test: Four-arm olfactometer assay with parasitoid females; assay type: in vivo; conditions: odor vs pure air
Experimental: FIG. 9 provides evidence that the parasitic wasp Cotesia marginiventris is attracted by (E)-β-caryophyllene after previous oviposition experience. Responses of the parasitic wasp Cotesia marginiventris to (E)-β-caryophyllene: The attraction of parasitoid females to a pure standard of (E)-β-caryophyllene was tested in a four-arm olfactometer. Two groups of parasitoids were tested: naïve wasps and wasps with a previous oviposition experience on host larvae in the presence of (E)-β-caryophyllene. The parasitoids were tested in groups of six (n=14).
9. […] On the next day, recovered nematodes were counted. • To test the above ground role of (E)-β-caryophyllene in attracting herbivore enemies, S. littoralis caterpillars and the solitary endoparasitoid Cotesia marginiventris were reared as described by Turlings et al. (2004). […] The experiment was repeated seven times. • The behavioral responses of parasitoids and entomopathogenic nematodes to (E)-β-caryophyllene were analyzed with a log-linear model corrected for the expected distribution within the olfactometer (Turlings et al. 2004). The model was fitted by maximum quasilikelihood estimation in the software package R (Version 2.4.0) and its adequacy was assessed through likelihood ratio statistics and examination of residuals. […]

[5] = substrate: CC(C)=CCC/C(C)=C/CC/C(C)=C/CO[P@@](=O)(O)OP(=O)(O)O; test: purified protein, by the assay type; conditions: other: FPP as substrate, TPS23-Del heterologously expressed in E. coli
Experimental: as §1, §2, §3

[6] = read-out: Km of divalent metal ion cofactor, TPS23-Del heterologously expressed in E. coli

CC(C)=CCC/C(C)=C/COP(=O)(O)OP(=O)(O)O [GPP, geranyl diphosphate]
acceptance as substrate (TPS23-Del [1]): does not accept; also recorded: did not accept

CC(C)=CCC/C(C)=C/CC/C(C)=C/CC/C(C)=C/COP(=O)(O)OP(=O)(O)O [GGPP, geranylgeranyl diphosphate]
acceptance as substrate (TPS23-Del [1]): does not accept; also recorded: did not accept

CC(C)=CCC/C(C)=C/CC/C(C)=C/CO[P@@](=O)(O)OP(=O)(O)O [FPP, (E,E)-farnesyl diphosphate]
Km (TPS23-Del [2]; read-out: Km value for FPP, purified enzyme, tritium-labeled FPP): 2.4 ± 0.4 µM

[Mn+2] [Mn^2+]
enzyme activity with divalent cation (TPS23-Del [2]; 0.25 mM): substantial activities
Km (TPS23-Del [2]; [6]): 28 ± 6 µM

[Mg+2] [Mg^2+]
enzyme activity with divalent cation (TPS23-Del [2]; 10 mM): substantial activities
Km (TPS23-Del [2]; [6]): 183 ± 34 µM

CN1CCCCC1CCN1c2ccccc2Sc2ccc([S+](C)[O-])cc21 (stereo not shown) [TPS23-Del]
time enzyme activity was stable [3]: at least 1 month

C=C1CC/C=C(\C)CC[C@@H]2[C@@H]1CC2(C)C [(E)-β-caryophyllene]
anti-microbial activity (pathogens): has anti-microbial activity
attractiveness to adult females of D. v. virgifera [4]: reported attractiveness
nematodes recovered from spiked arm compared to average of the five arms not spiked (Heterorhabditis megidis; 0.2 μl injected into one pot, 24 h after release of about 2000 H. megidis): Approximately twice
attraction of nematodes (Heterorhabditis megidis; six-arm olfactometer filled with moist sand, spiked arm vs five control arms): significantly larger number; also recorded: attracts
attraction of experienced wasps (Cotesia marginiventris; females with previous oviposition experience on host larvae in the presence of (E)-β-caryophyllene): significant preference; also recorded: preferred air carrying (E)-β-caryophyllene to pure air
attraction of naïve wasps (Cotesia marginiventris; females without oviposition experience): did not show this preference; also recorded: not attracted

B1: TPS23-Del (Zea mays) (protein)
chain: T1 sequence (B2C4D0 1-547)
Km ([5]; 0.25 mM MnCl2): 1.1 ± 0.3 µM
Km ([5]; 10 mM MgCl2): 3.7 ± 0.5 µM
